Measured values from US5597845A, “Substituted alkyldiamine derivatives” (Merrell Pharmaceuticals Inc., priority 1994, dated 1997).

Experiments:
NK1 receptor [1] = biological target: T1, NK1 receptor (Homo sapiens, UniProt P25103); test: Antagonism of tachykinin (SP)-induced phosphatidylinositol (PI) turnover in vitro, UCll cells; type: cell-based; conditions: SP agonist, 3 experiments
T1 construct: Receptor source for NK1 receptor is UCll cells; endogenous in cells; host or cells: UC11 cells (printed UCll)
T1 sequence (P25103 whole entry): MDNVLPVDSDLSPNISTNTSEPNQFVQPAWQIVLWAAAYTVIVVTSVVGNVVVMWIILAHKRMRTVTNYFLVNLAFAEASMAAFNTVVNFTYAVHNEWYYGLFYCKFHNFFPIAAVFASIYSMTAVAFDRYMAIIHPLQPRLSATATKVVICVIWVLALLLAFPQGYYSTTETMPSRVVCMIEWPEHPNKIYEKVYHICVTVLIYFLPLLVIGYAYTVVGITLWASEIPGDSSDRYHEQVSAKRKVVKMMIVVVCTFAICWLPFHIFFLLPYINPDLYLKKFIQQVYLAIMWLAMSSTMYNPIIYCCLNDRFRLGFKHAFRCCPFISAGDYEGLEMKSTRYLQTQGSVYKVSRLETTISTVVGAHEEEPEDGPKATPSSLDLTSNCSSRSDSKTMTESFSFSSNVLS
Method: (§1) Tachykinin-mediated phosphatidylinositol (PI, inositol phosphate) accumulation was measured in UCll or SKLKB82#3 cells in the presence and absence of NK1 or NK2 receptor antagonists, respectively. Tissues were incubated in Krebs-Henseleit buffer at 37° C. with 95% O2 --5% CO2 gassing. Tissues were then incubated with fresh buffer containing 100 μCi of myo-[2-^3 H(N)] inositol at 37° C. for 60 min with gentle gassing. After washing twice in 5 ml room temperature buffer containing 10 mM LiCl, tissues were incubated for 30 min at room temperature with a buffer change at 15 min. […] The third elution was collected and 1 ml counted in 7 ml scintillation fluid. A 50 μl aliquot of the organic (bottom) phase was removed, dried in a scintillation vial and counted in 7 ml scintillation fluid.
(§2) The ratio of DPM in the aqueous phase aliquot (total inositol phosphates) to the DPM in the 50 μl organic phase aliquot (total [^3 H]inositol incorporated) was calculated for each sample. Data are expressed as a percent of agonist-induced accumulation of [^3 H]-inositol phosphates over basal levels. […] Dose-response graphs are constructed and the ability of the test compounds to inhibit tachykinin-induced phosphatidyinositol turnover determined with the aid of a computer program. […]

[2] = biological target: T2, human jejunal NK2 receptor (Homo sapiens, UniProt P21452); test: Antagonism of iodinated tachykinin binding: NK2 receptor affinity in HSKR-1 cells (125 iodohistidyl-1-neurokinin A); conditions: HSKR-1 cells (mouse 3T3 fibroblasts expressing human jejunal NK2 receptor); 125I-neurokinin A 0.1 nM; 2 hr room temperature; mean of several experiments
T2 construct: expressed in transfected cells; host or cells: HSKR-1 cells (mouse 3T3 fibroblasts)
T2 sequence (P21452 1-398): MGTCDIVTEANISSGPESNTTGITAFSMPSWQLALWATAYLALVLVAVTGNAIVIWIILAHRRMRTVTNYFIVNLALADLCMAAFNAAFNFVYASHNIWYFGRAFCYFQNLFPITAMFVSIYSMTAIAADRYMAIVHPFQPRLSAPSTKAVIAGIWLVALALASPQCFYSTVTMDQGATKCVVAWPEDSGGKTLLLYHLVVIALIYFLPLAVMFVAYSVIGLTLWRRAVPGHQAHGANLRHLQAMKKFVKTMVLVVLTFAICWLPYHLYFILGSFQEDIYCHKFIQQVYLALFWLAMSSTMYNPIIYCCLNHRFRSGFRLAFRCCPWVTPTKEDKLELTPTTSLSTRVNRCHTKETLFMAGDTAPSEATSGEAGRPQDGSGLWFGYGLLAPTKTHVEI
Method: (§3) The NK1 receptor affinity of proposed tachykinin antagonists was evaluated in guinea pig lungs (Keystone Biologicals, Cleveland, Ohio) and affinity for the NK2 receptor evaluated in HSKR-1 cells (which are mouse 3T3 fibroblasts expressing the human jejunal NK2 receptor). Tissues or cells were homogenized with a Polytron in 15 volumes of 50 mM Tris-HCl buffer (pH 7.4, 4° C.) and centrifuged. The pellet was resuspended in Tris-HCl buffer and was centrifuged; the pellet was washed twice by resuspension. The final pellet was resuspended at a concentration of 40 mg/ml for tissues and 20 mg/ml for cells in incubation buffer and remained at room temperature for at least 15 min prior to use. Receptor binding was initiated by addition of 250 ul membrane preparation in duplicate to 0.1 nM of the following radioligands: ^125 I-Bolton Hunter Lys-3 labeled substance P and ^125 iodohistidyl-1-neurokinin A; in a final volume of 500 ul of buffer containing 50 mM Tris-HCl (pH 7.4 at room temperature), 0.1% bovine serum albumin, 2 mM MnCl2, 40 ug/ml bacitracin, 4 μg/ml leupeptin and chymostatin, 1 μM thiorphan and various doses of the putative tachykinin antagonists. Incubations were performed at room temperature for 90 min (NK1 receptor assays) or 2 hr (NK2 receptor assay); binding was terminated by addition of 50 mM Tris-HCl buffer (pH 7.4, 4° C.) and filtration under vacuum through GF/B filters presoaked with 0.1% polyethyleneimine (NK, receptor assays) or 0.5% bovine serum albumin (NK2 receptor assay). Filter bound radioactivity was quantitated in a gamma counter. Nonspecific binding was defined as binding in the presence of 1 μM substance P or neurokinin A. Specific binding was calculated by subtracting nonspecific binding from total binding. Competition of iodinated SP or NKA binding by test compounds or standards was expressed as a percentage of this maximum competition. IC50 values (concentration required to inhibit 50% of receptor binding) were generated for each of the test compounds by nonlinear regression using an iterative curve fitting program (GraphPAD Inplot, San Diego, Calif.).
(§4) IC50 values for some of the compounds of the present invention are found in Table 1 and represent the mean of several experiments.

NK1 receptor [3] = biological target: T3, NK1 receptor (Cavia porcellus, UniProt P30547); test: Antagonism of iodinated tachykinin binding: NK1 receptor affinity in guinea pig lungs (125I-Bolton Hunter Lys-3 labeled substance P); conditions: 125I-substance P 0.1 nM, 90 min room temperature, mean of several experiments
T3 construct: evaluated in guinea pig lungs; tissue Keystone Biologicals, Cleveland, Ohio; host or cells: guinea pig lung
T3 sequence (P30547 whole entry): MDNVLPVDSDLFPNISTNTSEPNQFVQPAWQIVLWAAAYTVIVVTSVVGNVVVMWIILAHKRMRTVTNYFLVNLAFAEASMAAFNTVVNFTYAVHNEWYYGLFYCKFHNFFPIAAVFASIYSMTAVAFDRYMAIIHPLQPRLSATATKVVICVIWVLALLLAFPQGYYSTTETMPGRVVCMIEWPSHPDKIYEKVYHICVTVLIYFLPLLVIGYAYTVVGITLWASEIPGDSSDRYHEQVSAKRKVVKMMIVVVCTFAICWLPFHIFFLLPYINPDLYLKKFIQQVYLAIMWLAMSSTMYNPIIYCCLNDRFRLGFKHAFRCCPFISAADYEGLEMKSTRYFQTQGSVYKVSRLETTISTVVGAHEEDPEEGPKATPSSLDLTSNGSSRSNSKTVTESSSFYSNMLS
Method: as §3, §4

UCll or SKLKB82#3 cells = test: Phosphatidylinositol (PI) turnover in vitro, UCll or SKLKB82#3 cells, statements not split by receptor; type: cell-based
Method: as §1, with “min. Buffer was removed and Krebs-Henseleit buffer (containing 40 μg/ml bacitracin, 4 μg/ml each of leupeptin and chymostatin, 0.1% bovine serum albumin and 10 mM each of thiorphan and LiCl) including the test compound is added. After 15 min, SP was added to UCll cells or NKA to SKLKB82#3 cells at various concentrations to start the reaction. After incubation for 60 min at room temperature the reaction was terminated by addition of 930 μl chloroform: methanol (1:2 by volume) to each tube, followed by 310 μl chloroform and 310 μl doubly distilled water.” for “min.”
as §2, with “program. Data is expressed as percent stimulation of total inositol phosphate accumulation over basal levels and normalized to the maximum response produced by SP.” for “program.”

NK2 receptor = biological target: T4, NK2 receptor (Bos taurus, UniProt P05363); test: Antagonism of tachykinin (NKA)-induced phosphatidylinositol (PI) turnover in vitro, SKLKB82#3 cells; type: cell-based; conditions: NKA agonist, 3 experiments
T4 construct: expressed in transfected cells; host or cells: SKLKB82#3 cells (murine B82 fibroblasts, own knowledge)
T4 sequence (P05363 1-384): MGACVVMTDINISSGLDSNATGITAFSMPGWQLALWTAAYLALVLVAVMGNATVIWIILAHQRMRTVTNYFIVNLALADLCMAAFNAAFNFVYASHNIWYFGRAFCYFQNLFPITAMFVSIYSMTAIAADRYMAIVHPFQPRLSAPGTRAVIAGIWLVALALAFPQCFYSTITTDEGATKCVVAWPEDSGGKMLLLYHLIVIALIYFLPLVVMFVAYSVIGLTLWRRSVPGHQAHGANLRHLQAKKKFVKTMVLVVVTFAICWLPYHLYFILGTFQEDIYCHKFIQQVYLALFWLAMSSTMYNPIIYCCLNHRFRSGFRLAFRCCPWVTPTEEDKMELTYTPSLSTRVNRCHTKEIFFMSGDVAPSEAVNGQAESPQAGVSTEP
Method: as §1, §2

For `COC(=O)[C@H](Cc1c[nH]c2ccccc12)NCCN[C@@H](Cc1ccc2ccccc2c1)C(=O)N(C)Cc1ccccc1OC` [Compound No. 1], the “-slope (Schild analysis), NK1 receptor” value (NK1 receptor [1]) was 1.28, the “pA2, tachykinin-induced PI turnover, NK1 receptor” value (NK1 receptor [1]; Schild analysis) was 7.34 and the IC50 [2] was 609 nM. The IC50 (NK1 receptor [3]) was 25.7 nM, the “slope of the lines obtained by a Schild analysis versus one” value (UCll or SKLKB82#3 cells; Schild analysis, 3 experiments) was “not significantly different from one (1)” and the “PI turnover when administered by itself (agonist activity)” value (UCll or SKLKB82#3 cells; compound alone, no tachykinin agonist) was “no PI turnover”. The mode of antagonism (UCll or SKLKB82#3 cells; from Schild analysis slope) was “competitive antagonist”, the “-slope (Schild analysis), NK2 receptor” value (NK2 receptor) was 1.11 and the “pA2, tachykinin-induced PI turnover, NK2 receptor” value (NK2 receptor; Schild analysis) was 6.70.
